# Data: US12528818B2, “Compositions and methods for inhibition of RAS” (Leidos Biomedical Research, Inc., priority 2021, dated 2026)
# System: pERK in NCI-H358 cells
# Assay: Cell-based pERK HTRF assay (pERK inhibition in H358 cells)
# Details: Homo sapiens, NCI-H358, 0.5 h, pERK inhibition IC50, NCI-H358 cells, 30 min incubation; read-out: PERK in H358 cell
# Method: On Day 1, cells (NCI-H358) were seeded into 96-well plates at 4×10^4 cells/well in complete growth media (RPMI, 10% FBS).
# The source plate was created with compounds diluted in media at 5-fold the final assay concentration. […] 20 μL was transferred onto the cell plates (final volume in wells was 100 μL). Plates were harvested after 30 min incubation by aspirating media and adding kit-supplied 1× supplemented lysis buffer to all wells (75 μl per well). Plates were then placed on a plate shaker and incubated at 850 rpm for an additional 30 min.
# Antibody mixture solution was prepared by diluting aliquoted d2 and Eu Cryptate antibodies 1:20 in kit supplied detection buffer, then mixed the diluted antibodies solutions (1:1 v:v).
# Samples were homogenized by pipetting up and down and then transferred (16 μL of cell lysates) from the 96-well cell culture plate to two wells of the HTRF 384-well detection plate containing the antibody solution. Plates were centrifuged (524 g for 1 min) and allowed to incubate between 4 and 24 h at room temperature. Maximum signal is reached after 4 h incubation time and remains stable over a period of 24 hours. Therefore, readings can be made between 4 and 24 h of incubation.
row,IC50,SMILES
1,100 to 1000 nM,C=CC(=O)N1CC[C@@H](N(C)c2nc(OC[C@@H]3C[C@@H](F)CN3C3CC3)nc3c(F)c(-c4ccc(F)c5sc(N)nc45)c(C(F)(F)F)cc23)C1 [Compound 273]
2,< 100 nM,C=CC(=O)N1CCC(N(C)c2nc(OC[C@@]34CCCN3C[C@H](F)C4)nc3c(F)c(-c4ccc(F)c5sc(N)c(C#N)c45)ccc23)[C@H]1COC (stereo partly drawn) [Compound 402]
3,> 1000 nM,C=CC(=O)N1CC(N(CCC#N)c2nc(OC[C@@H]3CCCN3C)nc3c(F)c(-c4ccc(F)c5sc(N)nc45)c(Cl)cc23)C1 [Compound 141]
4,< 100 nM,C=CC(=O)N1CC[C@@H](N(C)c2nc(OC[C@@]34CCCN3C[C@H](F)C4)nc3c(F)c(-c4ccc(F)c5sc(N)c(C#N)c45)c(C(F)(F)F)cc23)C1 [Compound 253]
5,< 100 nM,C=CC(=O)N1CCC(N(C)c2nc(OC[C@@H]3CCCN3C)nc3c(F)c(-c4ccc(F)c5sc(N)c(C#N)c45)c(Cl)cc23)[C@H]1C (stereo partly drawn) [Compound 419]
6,100 to 1000 nM,C=CC(=O)N1CCC(N(CC)c2nc(OC[C@@]34CCCN3C[C@H](F)C4)nc3c(C#N)c(-c4ccc(F)c5sc(N)c(C#N)c45)ccc23)[C@H]1COC (stereo partly drawn) [Compound 428]
7,< 100 nM,C=CC(=O)N1C[C@@H](F)[C@@H](N(CC)c2nc(OC[C@@]34CCCN3C[C@H](F)C4)nc3cc(-c4ccc(F)c5sc(N)c(C#N)c45)c(C(F)(F)F)cc23)C1 [Compound 375]
8,< 100 nM,C=CC(=O)N1CC[C@@H](N(C)c2nc(OC[C@@]34CCCN3C[C@H](F)C4)nc3c(F)c(-c4ccc(F)c5sc(N)c(C#N)c45)ccc23)C1 [Compound 311]
9,> 1000 nM,C=CC(=O)N1CCC(Nc2nc(OC[C@@H]3CCCN3C)nc3c(F)c(-c4ccc(F)c5sc(N)nc45)c(Cl)cc23)C1 (stereo partly drawn) [Compound 52]
10,< 100 nM,C=CC(=O)N1C[C@@H](F)[C@@H](N(C)c2nc(OC[C@@H]3C[C@@H](OC)CN3C)nc3cc(-c4ccc(F)c5sc(N)c(C#N)c45)c(C(F)(F)F)cc23)C1 [Compound 361]
11,< 100 nM,C=CC(=O)N1CCN(c2nc(OCC34CCCN3C[C@H](OC)C4)nc3c(F)c(-c4ccc(F)c5sc(N)nc45)c(C(F)(F)F)cc23)CC1 (stereo partly drawn) [Compound 209]
12,< 100 nM,C=CC(=O)N1CC[C@@H](N(C)c2nc(OC[C@@]34CCCN3C[C@H](F)C4)nc3cc(-c4ccc(F)c5sc(N)nc45)c(C(F)(F)F)cc23)C1 [Compound 300]
13,< 100 nM,C=CC(=O)N1[C@@H](C)CN(c2nc(OC[C@@]34CCCN3C[C@H](F)C4)nc3c(F)c(-c4ccc(F)c5sc(N)c(C#N)c45)c(C(F)(F)F)cc23)C[C@@H]1C [Compound 321]
14,100 to 1000 nM,C=CC(=O)N1C[C@@H](C)[C@@H](N(C)c2nc(OC[C@@]34CCCN3C[C@H](F)C4)nc3c(F)c(-c4ccc(F)c5sc(N)nc45)c(C(F)(F)F)cc23)C1 [Compound 292]
15,< 100 nM,C=CC(=O)N1CCC(N(C)c2nc(OC[C@@H]3CCCN3CC)nc3c(F)c(-c4ccc(F)c5sc(N)c(C#N)c45)c(C(F)(F)F)cc23)[C@H]1C (stereo partly drawn) [Compound 451]
16,< 100 nM,"C=CC(=O)N1C[C@@H](F)[C@@H](N(C)c2nc(OC[C@@]34CCCN3C[C@H](F)C4)nc3cc(-c4ccc(F)c5sc(N)c(C#N)c45)c(C(F)(F)F)cc23)C1 [Compound 315, 4-(4-(((3S,4R)-1-acryloyl-4-fluoropyrrolidin-3-yl)(methyl)amino)-2-(((2R,7aS)-2-fluorotetrahydro-1H-pyrrolizin-7a(5H)-yl)methoxy)-6-(trifluoromethyl)quinazolin-7-yl)-2-amino-7-fluorobenzo[b]thiophene-3-carbonitrile]"
17,< 100 nM,C=CC(=O)N1CC[C@@H](N(C)c2nc(OCC3(CN4CC[C@@H](F)C4)CC3)nc3c(F)c(-c4ccc(F)c5sc(N)nc45)c(C(F)(F)F)cc23)C1 [Compound 288]
18,< 100 nM,"C=CC(=O)N1C[C@H](C)N(c2nc(OC[C@@]34CCCN3C[C@H](F)C4)nc3c(F)c(-c4ccc(F)c5sc(N)c(C#N)c45)c(C(F)(F)F)cc23)C[C@H]1C [Compound 252, 4-(4-((2S,5R)-4-acryloyl-2,5-dimethylpiperazin-1-yl)-8-fluoro-2-(((2R,7aS)-2-fluorotetrahydro-1H-pyrrolizin-7a(5H)-yl)methoxy)-6-(trifluoromethyl)quinazolin-7-yl)-2-amino-7-fluorobenzo[b]thiophene-3-carbonitrile]"
19,> 1000 nM,C=CC(=O)N1CC(Nc2nc(OC[C@@H]3CCCN3C)nc3c(F)c(-c4ccc(F)c5nc(N)sc45)c(Cl)cc23)C1 [Compound 90]

row,IC50,SMILES
1,> 1000 nM,C=CC(=O)N1CC[C@@H]2[C@H]1CN2c1nc(OCC23CCCN2CCC3)nc2c(F)c(-c3ccc(F)c4sc(N)nc34)c(-c3ccoc3)cc12 [Compound 121]
2,< 100 nM,"C=CC(=O)N1C[C@H](C)N(c2nc(OC[C@]34CCCN3C[C@H](F)C4)nc3c(F)c(-c4ccc(F)c5sc(N)nc45)c(C(F)(F)F)cc23)C[C@H]1C [Compound 204, 1-((2R,5S)-4-(7-(2-amino-7-fluorobenzo[d]thiazol-4-yl)-8-fluoro-2-(((2R,7aR)-2-fluorotetrahydro-1H-pyrrolizin-7a(5H)-yl)methoxy)-6-(trifluoromethyl)quinazolin-4-yl)-2,5-dimethylpiperazin-1-yl)prop-2-en-1-one]"
3,100 to 1000 nM,C=CC(=O)N1CC[C@@H](N(CC)c2nc(OCC34CCCN3CCC4)nc3c(F)c(-c4ccc(F)c5sc(N)nc45)c(C(F)(F)F)cc23)C1 [Compound 249]
4,> 1000 nM,C=CC(=O)N1CC(N(c2nc(OCC3CCCN3C)nc3c(F)c(-c4ccc(F)c5sc(N)nc45)c(Cl)cc23)C(C)C)C1 (stereo not drawn) [Compound 159]
5,< 100 nM,"C=CC(=O)N1CC[C@@H](N(C)c2nc(OC[C@@H]3CC4(CC4)CN3C)nc3c(F)c(-c4ccc(F)c5sc(N)nc45)c(C(F)(F)F)cc23)C1 (atropisomer, axis not shown) [Compound 255]"
6,< 100 nM,"C=CC(=O)N1CCC(N(C)c2nc(OC[C@@H]3CCCN3C)nc3c(F)c(-c4ccc(F)c5sc(N)c(C#N)c45)c(C(F)(F)F)cc23)C1COC (stereo partly drawn) [Compound 426, 4-(4-((1-acryloyl-2-(methoxymethyl)pyrrolidin-3-yl)(methyl)amino)-8-fluoro-2-(((S)-1-methylpyrrolidin-2-yl)methoxy)-6-(trifluoromethyl)quinazolin-7-yl)-2-amino-7-fluorobenzo[b]thiophene-3-carbonitrile]"
7,> 1000 nM,CN1CCC[C@H]1COc1nc(NC2CCCN(C#N)C2)c2cc(Cl)c(-c3ccc(F)c4sc(N)nc34)c(F)c2n1 (stereo partly drawn) [Compound 53]
8,< 100 nM,C=CC(=O)N1CCN(c2nc(OC[C@@]34CCCN3C[C@@H](F)C4)nc3c(F)c(-c4ccc(F)c5sc(N)nc45)c(C(F)(F)F)cc23)C[C@H]1C [Compound 220]
9,100 to 1000 nM,C=CC(=O)N1CC[C@@H](N(CC)c2ncnc3c(F)c(-c4ccc(F)c5sc(N)nc45)c(C(F)(F)F)cc23)C1 [Compound 248]
10,> 1000 nM,C=CC(=O)N1CC(N(c2nc(OCC34CCCN3CCC4)nc3c(F)c(-c4ccc(F)c5sc(N)nc45)c(C(F)(F)F)cc23)C2CC2)C1 [Compound 152]
11,< 100 nM,C=CC(=O)N1CC[C@@H](N(C)c2nc(OCC3(CN4CCOCC4)CC3)nc3c(F)c(-c4ccc(F)c5sc(N)nc45)c(C(F)(F)F)cc23)C1 [Compound 287]
12,< 100 nM,"C=CC(=O)N1CC[C@@H](N(C)c2nc(OC[C@]34CCCN3C[C@H](OC)C4)nc3c(F)c(-c4ccc(F)c5sc(N)nc45)c(C(F)(F)F)cc23)C1 (atropisomer, axis not shown) [Compound 277]"
13,100 to 1000 nM,C=CC(=O)N1CCC(N(C)c2nc(OC[C@@]34CCCN3C[C@H](F)C4)nc3c(F)c(-c4ccc(F)c5sc(N)nc45)ccc23)[C@H]1C (stereo partly drawn) [Compound 413]
14,< 100 nM,C=CC(=O)N1CCC(N(C)c2nc(OC[C@@H]3C[C@@H](F)CN3C)nc3cc(-c4ccc(F)c5sc(N)c(C#N)c45)c(C#N)cc23)[C@H]1COC (stereo partly drawn) [Compound 444]
15,< 100 nM,C=CC(=O)N1C[C@@H](F)[C@@H](N(C)c2nc(OC[C@@]34CCCN3C[C@H](F)C4)nc3cc(-c4ccc(F)c5sc(N)c(C#N)c45)c(C#N)cc23)C1 [Compound 372]
16,100 to 1000 nM,CC#CC(=O)N1CCN(c2nc(OCC34CCCN3CC(C)(C)C4)nc3c(F)c(-c4ccc(F)c5sc(N)nc45)c(C(F)(F)F)cc23)CC1 (stereo not drawn) [Compound 170]
17,< 100 nM,C=CC(=O)N1CCC(N(C)c2nc(OC[C@@H]3CC4(CC4)CN3C)nc3c(F)c(-c4ccc(F)c5sc(N)c(C#N)c45)c(C(F)(F)F)cc23)[C@H]1C (stereo partly drawn) [Compound 409]
18,< 100 nM,C=CC(=O)N1CCN(c2nc(OC[C@@]34CCCN3C[C@H](F)C4)nc3c(F)c(-c4ccc(F)c5sc(N)nc45)c(C(F)(F)F)cc23)[C@@H](C)C1 [Compound 189]

# Same assay, conditions: pERK inhibition IC50, NCI-H358 cells, 30 min incubation; read-out: PERK in H358 cell
row,IC50,SMILES
1,< 100 nM,"C=CC(=O)N1CC[C@@H](N(C)c2nc(OC[C@@H]3CC(F)(F)CN3C)nc3c(F)c(-c4ccc(F)c5sc(N)nc45)c(C(F)(F)F)cc23)C1 (atropisomer, axis not shown) [Compound 228]"
2,< 100 nM,"C=CC(=O)N1CC[C@@H](N(c2nc(OC[C@@]34CCCN3C[C@H](F)C4)nc3c(F)c(-c4ccc(F)c5sc(N)nc45)c(C(F)(F)F)cc23)C2CC2)C1 (single isomer, unassigned) [Compound 236]"
